# pIC50: −log10 of the molar value.
# Experiments:
# [1] = test system: SDMA in HAP1 MTAP-intact cell line (PRMT5 inhibition); experiment: SDMA in-cell western assay, HAP1 MTAP-intact cell line; details: Homo sapiens, HAP1, read-out: Hap1 MTAP intact IC50
# [2] = test system: SDMA in HAP1 MTAP-deleted (MTAP-null) cell line (PRMT5 inhibition); experiment: SDMA in-cell western assay, HAP1 MTAP-deleted cell line; details: for pIC50 / IC90: Homo sapiens; for pIC50: HAP1, read-out: Hap1 MTAP deleted IC50; for IC90: HAP1, read-out: Hap1 MTAP deleted IC90; for Hap1 MTAP intact/deleted ratio: ratio of SDMA IC50 in HAP1 MTAP-intact to HAP1 MTAP-deleted cell line
# [3] = test system: HAP1 MTAP-deleted cell line; experiment: Viability assay, HAP1 MTAP-deleted cell line; type: cell-based; details: Homo sapiens; viability assay, HAP1 MTAP-deleted cell line; read-out: Hap1 MTAP deleted viability IC50
Compound,pIC50 [1],pIC50 [2],IC90 [2] [µM],Hap1 MTAP intact/deleted ratio [2],pIC50 [3]
"Nc1ncc(NC(=O)C(=O)N(Cc2ccccn2)Cc2ccccn2)c2[nH]ncc12 [Compound 89, N-(4-amino-1H-pyrazolo[4,3-c]pyridin-7-yl)-N′,N′-bis(2-pyridylmethyl)oxamide]",< 7.30,> 8.30,< 0.075,A (IC50 ratio greater than or equal to 30 fold),> 7.00
"Nc1ncc(NC(=O)C(=O)N(Cc2ccccc2)Cc2ccncc2)c2[nH]ncc12 [Compound 27, N-(4-amino-1H-pyrazolo[4,3-c]pyridin-7-yl)-N′-benzyl-N′-(4-pyridylmethyl)oxamide]",< 7.30,> 8.30,< 0.075,A (IC50 ratio greater than or equal to 30 fold),> 7.00
"NC(=O)c1ccc(CN(Cc2ncccn2)C(=O)C(=O)Nc2cnc(N)c3cn[nH]c23)nc1 [Compound 136, N-(4-amino-1H-pyrazolo[4.3-c]pyridin-7-yl)-N′-[(5-carbamoyl-2-pyridyl)methyl]-N′-(pyrimidin-2-ylmethyl)oxamide]",< 7.30,< 7.30,> 0.125,C (IC50 ratio of less than 15 fold),< 6.00
"CC(c1ncccn1)N(Cc1ccc(C#N)cn1)C(=O)C(=O)Nc1cnc(N)c2cn[nH]c12 (centres unmarked) [Compound 135, N-(4-Amino-1H-pyrazolo[4,3-c]pyridin-7-yl)-N′-[(5-cyano-2-pyridyl)methyl]-N′-(1-pyrimidin-2-ylethyl)oxamide]",< 7.30,7.30 to 8.30,> 0.125,C (IC50 ratio of less than 15 fold),6.00 to 7.00
"C[C@H](c1ccc(C(F)(F)C(F)(F)F)cc1F)N(C)C(=O)C(=O)Nc1cnc(N)c2cn[nH]c12 [Compound 188, N-(4-Amino-1H-pyrazolo[4,3-c]pyridin-7-yl)-N′-methyl-N′—[(1R)-1-[2-fluoro-4-(1,1,2,2,2-pentafluoroethyl)phenyl]ethyl]oxamide]",7.30 to 8.30,> 8.30,< 0.075,B (IC50 ratio greater than or equal to 15 fold but lower than 30 fold),> 7.00
"Cc1cc(F)ccc1CN(Cc1ccccc1)C(=O)C(=O)Nc1cnc(N)c2cn[nH]c12 [Compound 149, N-(4-amino-1H-pyrazolo[4,3-c]pyridin-7-yl)-N′-benzyl-N′-[(4-fluoro-2-methyl-phenyl)methyl]oxamide]",7.30 to 8.30,> 8.30,< 0.075,B (IC50 ratio greater than or equal to 15 fold but lower than 30 fold),> 7.00
"C[C@@H](c1ncccn1)N(Cc1ccc(C(F)(F)F)cn1)C(=O)C(=O)Nc1cnc(N)c2cn[nH]c12 (stereo in doubt) [Compound 50, N-(4-amino-1H-pyrazolo[4,3-c]pyridin-7-yl)-N′-(1-pyrimidin-2-ylethyl)-N′-[[5-(trifluoromethyl)-2-pyridyl]methyl]oxamide]",7.30 to 8.30,> 8.30,< 0.075,C (IC50 ratio of less than 15 fold),> 7.00
"CCN(Cc1ccc(S(F)(F)(F)(F)F)cc1)C(=O)C(=O)Nc1cnc(N)c2cn[nH]c12 [Compound 150, N-(4-amino-1H-pyrazolo[4,3-c]pyridin-7-yl)-N′-ethyl-N′-[[4-(pentafluoro-sulfanyl)phenyl]methyl]oxamide]",7.30 to 8.30,> 8.30,< 0.075,C (IC50 ratio of less than 15 fold),> 7.00
"Nc1ncc(NC(=O)C(=O)N(Cc2ccccc2)Cc2ccc(C(F)(F)F)cn2)c2[nH]ncc12 [Compound 108, N-(4-amino-1H-pyrazolo[4,3-c]pyridin-7-yl)-N′-benzyl-N′-[[5-(trifluoromethyl)-2-pyridyl]methyl]oxamide]",7.30 to 8.30,> 8.30,< 0.075,B (IC50 ratio greater than or equal to 15 fold but lower than 30 fold),> 7.00
"C[C@H](c1ccc(C(F)(F)C(F)(F)F)cc1)N(C)C(=O)C(=O)Nc1cnc(N)c2cn[nH]c12 [Compound 121, N-(4-amino-1H-pyrazolo[4,3-c]pyridin-7-yl)-N′-methyl-N′—[(1R)-1-[4-(1,1,2,2,2-pentafluoroethyl)phenyl]ethyl]oxamide]",7.30 to 8.30,> 8.30,< 0.075,B (IC50 ratio greater than or equal to 15 fold but lower than 30 fold),> 7.00
"COc1ncc(NC(=O)C(=O)N(Cc2ccc(C(F)(F)F)cn2)[C@@H]2CCc3ccccc32)cc1C(N)=O [Compound 30, (R)-N1-(5-carbamoyl-6-methoxypyridin-3-yl)-N^2-(2,3-dihydro-1H-inden-1-yl)-N^2-((5-(trifluoromethyl)pyridin-2-yl)methyl)oxalamide]",< 7.30,> 8.30,< 0.075,A (IC50 ratio greater than or equal to 30 fold),> 7.00
"Cc1cccnc1CN(Cc1ccccn1)C(=O)C(=O)Nc1cnc(N)c2cn[nH]c12 [Compound 180, N-(4-amino-2H-pyrazolo[4,3-c]pyridin-7-yl)-N′-[(3-methyl-2-pyridyl)methyl]-N′-(2-pyridylmethyl)oxamide]",7.30 to 8.30,> 8.30,< 0.075,C (IC50 ratio of less than 15 fold),> 7.00
"Nc1ncc(NC(=O)C(=O)N(Cc2ccccc2)Cc2ccccn2)c2[nH]ncc12 [Compound 9, N-(4-amino-1H-pyrazolo[4,3-c]pyridin-7-yl)-N′-benzyl-N′-(2-pyridylmethyl)oxamide]",< 7.30,> 8.30,< 0.075,A (IC50 ratio greater than or equal to 30 fold),> 7.00
CN(Cc1ccc(C(F)(F)C(F)(F)F)cc1F)C(=O)C(=O)Nc1cnc(N)c2cn[nH]c12 [Compound 157],< 7.30,> 8.30,< 0.075,A (IC50 ratio greater than or equal to 30 fold),> 7.00
"CC[C@H](C)CN(Cc1ccccc1C)C(=O)C(=O)Nc1cnc(N)c2cn[nH]c12 [Compound 60, (S)—N^1-(4-amino-1H-pyrazolo[4,3-c]pyridin-7-yl)-N^2-(2-methylbenzyl)-N^2-(2-methylbutyl)oxalamide]",7.30 to 8.30,> 8.30,< 0.075,A (IC50 ratio greater than or equal to 30 fold),> 7.00
"CCc1cc(NC(=O)C(=O)N(Cc2ccc(C(F)(F)F)cn2)C2CCC(C)c3ccccc32)cnc1N (centres unmarked) [Compound 10, N-(6-amino-5-ethyl-3-pyridyl)-N′-(4-methyltetralin-1-yl)-N′-[[5-(trifluoromethyl)-2-pyridyl]methyl]oxamide]",< 7.30,7.30 to 8.30,0.075 to 0.125,C (IC50 ratio of less than 15 fold),6.00 to 7.00
"Nc1ncc(NC(=O)C(=O)N(Cc2ccccc2)Cc2ccc(Cl)cn2)c2[nH]ncc12 [Compound 158, N-(4-amino-1H-pyrazolo[4,3-c]pyridin-7-yl)-N′-benzyl-N′-[(5-chloro-2-pyridyl)methyl]oxamide]",7.30 to 8.30,> 8.30,< 0.075,C (IC50 ratio of less than 15 fold),> 7.00
"Nc1ncc(NC(=O)C(=O)N(Cc2ccc(C(F)(F)F)cn2)[C@@H]2CCC[C@H]2OC(F)F)cc1C1CC1 [Compound 4, N1-(6-amino-5-cyclopropylpyridin-3-yl)-N^2-((1R,2R)-2-(difluoromethoxy)cyclopentyl)-N^2-((5-(trifluoromethyl)pyridin-2-yl)methyl)oxalamide]",< 7.30,7.30 to 8.30,0.075 to 0.125,A (IC50 ratio greater than or equal to 30 fold),6.00 to 7.00
"Cc1cc(NC(=O)C(=O)N(Cc2ccc(C(F)(F)F)cn2)[C@H](C)c2ncccn2)cnc1N [Compound 6, N-(6-amino-5-methyl-3-pyridyl)-N′—[(1R)-1-pyrimidin-2-ylethyl]-N′-[[5-(trifluoromethyl)-2-pyridyl]methyl]oxamide]",> 8.30,> 8.30,> 0.125,C (IC50 ratio of less than 15 fold),6.00 to 7.00
"C[C@@H](c1ccc(C(F)(F)F)cc1)N(C)C(=O)C(=O)Nc1cnc(N)c2c1cnn2C [Compound 79, N-(7-Amino-1-methyl-pyrazolo[3,4-c]pyridin-4-yl)-N′-methyl-N′—[(1S)-1-[4-(trifluoromethyl)phenyl]ethyl]oxamide]",< 7.30,7.30 to 8.30,> 0.125,A (IC50 ratio greater than or equal to 30 fold),6.00 to 7.00
"CCN(Cc1ccc(F)cc1C)C(=O)C(=O)Nc1cnc(N)c2cn[nH]c12 [Compound 166, N-(4-amino-1H-pyrazolo[4,3-c]pyridin-7-yl)-N′-ethyl-N′-[(4-fluoro-2-methyl-phenyl)methyl]oxamide]",< 7.30,> 8.30,> 0.125,A (IC50 ratio greater than or equal to 30 fold),> 7.00
"CC(CN(Cc1ccc(C(F)(F)F)cn1)C(=O)C(=O)Nc1cnc(N)c(C2CC2)c1)C1CC1 (centres unmarked) [Compound 13, N-(6-amino-5-cyclopropyl-3-pyridyl)-N′-(2-cyclopropylpropyl)-N′-[[5-(trifluoromethyl)-2-pyridyl]methyl]oxamide]",< 7.30,7.30 to 8.30,> 0.125,A (IC50 ratio greater than or equal to 30 fold),6.00 to 7.00

# Reference: patent US20250136594A1 (Tango Therapeutics, Inc., priority 2022, published 2025)
